Dissolution time and sweetness strength data for four molecules are collected here from patent US6372278B1, “Sweetener composition” (Ajinomoto Co., Inc., priority 1998, dated 2002).

Series [1] can be described thus: Dissolution time in water, elution tester (Japanese Pharmacopoeia paddle method). The format is physicochemical. As to the method:
(Dissolution rate of raw (original) powders each from NM C-type crystals and APM, and a mixture thereof) A predetermined amount of the sample was introduced into 900 ml water (20° C.) in a 1-L elution tester (the Japanese Pharmacopoeia, Paddle method, 100 rpm) and its dissolution time was measured (end point was visually confirmed).
Specifically, 1 g of sample taken from each mixture consisting of NM C-type crystal raw powder (average particle size of about 100 μm) and APM raw powder (average particle size of about 15 μm, IB-type bundled crystals) at the predetermined various ratios (APM content (% by weight)) shown in Table 1 below, was weighed, and then measured for its dissolution time. For comparison, 1.00 g, 0.90 g, 0.50 g, 0.10 g, 0.03 g, and 0.005 g samples were taken from said NM raw powder, and then their dissolution times were determined in the same manner as above. For the same purpose, 1.00 g, 0.97 g, 0.90 g, 0.50 g, and 0.10 g samples were taken from said APM raw powder, and then their dissolution times were determined in the same manner. […]

The conditions of series [2]: in terms of weight ratio; cited from earlier work.
[3] abbreviates: 0.10 g sample alone in 900 ml water, 20° C., paddle 100 rpm.
The mark [4] stands for this setting: 0.50 g sample alone in 900 ml water, 20° C., paddle 100 rpm.
The mark [5] stands for this setting: 0.90 g sample alone in 900 ml water, 20° C., paddle 100 rpm.
The mark [6] stands for this setting: 1.00 g sample alone in 900 ml water, 20° C., paddle 100 rpm, end point visual.
[7] abbreviates: 0.03 g sample alone in 900 ml water, 20° C., paddle 100 rpm.
[8] abbreviates: 0.51 g of NM alone (same sweetness as 1 g mixture containing 50% APM).

Structures are written as SMILES. Peptide text beside a SMILES is read from it.

Regarding `COC(=O)[C@H](Cc1ccccc1)NC(=O)[C@@H](N)CC(=O)O` [APM, Aspartame] (H-Asp-Phe-OMe), the Dissolution time in series [1] (setting [3]) was found to be 10 min; in series [1] (setting [4]) it was 20 min; in series [1] (setting [5]) it was 27 min; in series [1] (0.97 g sample alone in 900 ml water, 20° C., paddle 100 rpm), 29 min; in series [1] (setting [6]) it was 30 min. In addition, the sweetness strength entry in series [2] is “about 200 times that of sucrose”.
Consider `COC(=O)[C@H](Cc1ccccc1)NC(=O)[C@H](CC(=O)O)NCCC(C)(C)C` [NM A-type crystals, N-{N-(3,3-dimethylbutyl)-L-α-aspartyl}-L-phenylalanine 1-methyl ester], for which the Dissolution time in series [1] (setting [7]) is listed as 10 min; in series [1] (setting [3]), 16 min; in series [1] (setting [4]) it was 35 min; in series [1] (setting [8]), “about 35 minutes”; in series [1] (setting [5]), 40 min; in series [1] (setting [6]), 42 min.
In the case of `COC(=O)[C@H](Cc1ccccc1)NC(=O)[C@H](CC(=O)O)NCCC(C)(C)C` [NM C-type crystals, N-{N-(3,3-dimethylbutyl)-L-α-aspartyl}-L-phenylalanine 1-methyl ester], the Dissolution time is 4 min in series [1] (0.005 g sample alone in 900 ml water, 20° C., paddle 100 rpm); 30 min in series [1] (setting [7]); 40 min in series [1] (setting [3]); 55 min in series [1] (0.5 g alone, 900 ml water, 20° C.); 55 min in series [1] (setting [4]); “about 55 minutes” in series [1] (setting [8]). The Dissolution time in series [1] (setting [5]) is reported as 60 min; in series [1] (setting [6]), 62 min.
Regarding `COC(=O)[C@H](Cc1ccccc1)NC(=O)[C@H](CC(=O)O)NCCC(C)(C)C` [NM], the sweetness strength entry in series [2] was “about 10,000 times that of sucrose”.
